From the NIST ThermoML archive (doi:10.1016/j.jct.2018.03.013)

Experiment: xn = mol fraction of the nth substance listed
Conditions: 100 kPa, Liquid; for speed of sound: Frequency=3 MHz, Linear variable-path acoustic interferometer; for mass density: Pycnometric method

C=C(C)C(=O)OC [methyl methacrylate] + CC#N
Conditions | mass density [kg/m3] | speed of sound [m/s]
293.15 K, x2 = 0 | 943.38 | 1200.5
293.15 K, x2 = 0.0688 | 938.34 | 1207.5
293.15 K, x2 = 0.1376 | 932.76 | 1214.3
293.15 K, x2 = 0.1957 | 927.6 | 1220
293.15 K, x2 = 0.2716 | 920.18 | 1227.3
293.15 K, x2 = 0.3344 | 913.41 | 1233.2
293.15 K, x2 = 0.4135 | 903.99 | 1240.5
293.15 K, x2 = 0.4916 | 893.58 | 1247.5
293.15 K, x2 = 0.5649 | 882.66 | 1254.2
293.15 K, x2 = 0.6386 | 870.38 | 1261
293.15 K, x2 = 0.7084 | 857.36 | 1267.7
293.15 K, x2 = 0.7927 | 839.5 | 1276.4
293.15 K, x2 = 0.855 | 824.53 | 1283.5
293.15 K, x2 = 0.9073 | 810.58 | 1290.3
293.15 K, x2 = 0.9497 | 798.21 | 1296.3
298.15 K, x2 = 0 | 937.64 | 1183.6
298.15 K, x2 = 0.0688 | 932.64 | 1190.6
298.15 K, x2 = 0.1376 | 927.09 | 1197.2
298.15 K, x2 = 0.1957 | 921.95 | 1202.7
298.15 K, x2 = 0.2716 | 914.56 | 1209.7
298.15 K, x2 = 0.3344 | 907.81 | 1215.3
298.15 K, x2 = 0.4135 | 898.42 | 1222.3
298.15 K, x2 = 0.4916 | 888.04 | 1229
298.15 K, x2 = 0.5649 | 877.15 | 1235.3
298.15 K, x2 = 0.6386 | 864.91 | 1241.7
298.15 K, x2 = 0.7084 | 851.92 | 1248
298.15 K, x2 = 0.7927 | 834.09 | 1256.2
298.15 K, x2 = 0.855 | 819.15 | 1263
298.15 K, x2 = 0.9073 | 805.23 | 1269.3
298.15 K, x2 = 0.9497 | 792.88 | 1275
303.15 K, x2 = 0 | 931.9 | 1168.5
303.15 K, x2 = 0.0688 | 926.94 | 1175.5
303.15 K, x2 = 0.1376 | 921.42 | 1182
303.15 K, x2 = 0.1957 | 916.3 | 1187.4
303.15 K, x2 = 0.2716 | 908.94 | 1194.1
303.15 K, x2 = 0.3344 | 902.21 | 1199.5
303.15 K, x2 = 0.4135 | 892.85 | 1206.2
303.15 K, x2 = 0.4916 | 882.5 | 1212.6
303.15 K, x2 = 0.5649 | 871.64 | 1218.6
303.15 K, x2 = 0.6386 | 859.43 | 1224.8
303.15 K, x2 = 0.7084 | 846.47 | 1230.8
303.15 K, x2 = 0.7927 | 828.68 | 1238.7
303.15 K, x2 = 0.855 | 813.77 | 1245.1
303.15 K, x2 = 0.9073 | 799.87 | 1251.2
303.15 K, x2 = 0.9497 | 787.55 | 1256.6
308.15 K, x2 = 0 | 926.16 | 1152.6
308.15 K, x2 = 0.0688 | 921.23 | 1159.6
308.15 K, x2 = 0.1376 | 915.74 | 1166
308.15 K, x2 = 0.1957 | 910.65 | 1171.2
308.15 K, x2 = 0.2716 | 903.31 | 1177.8
308.15 K, x2 = 0.3344 | 896.61 | 1183
308.15 K, x2 = 0.4135 | 887.27 | 1189.5
308.15 K, x2 = 0.4916 | 876.95 | 1195.7
308.15 K, x2 = 0.5649 | 866.13 | 1201.5
308.15 K, x2 = 0.6386 | 853.94 | 1207.4
308.15 K, x2 = 0.7084 | 841.01 | 1213.2
308.15 K, x2 = 0.7927 | 823.27 | 1220.8
308.15 K, x2 = 0.855 | 808.39 | 1227.1
308.15 K, x2 = 0.9073 | 794.51 | 1233
308.15 K, x2 = 0.9497 | 782.21 | 1238.2
313.15 K, x2 = 0 | 920.42 | 1135.4
313.15 K, x2 = 0.0688 | 915.52 | 1142.4
313.15 K, x2 = 0.1376 | 910.06 | 1148.7
313.15 K, x2 = 0.1957 | 904.99 | 1153.9
313.15 K, x2 = 0.2716 | 897.68 | 1160.3
313.15 K, x2 = 0.3344 | 891 | 1165.6
313.15 K, x2 = 0.4135 | 881.69 | 1172
313.15 K, x2 = 0.4916 | 871.4 | 1178.1
313.15 K, x2 = 0.5649 | 860.61 | 1183.8
313.15 K, x2 = 0.6386 | 848.45 | 1189.5
313.15 K, x2 = 0.7084 | 835.55 | 1195.2
313.15 K, x2 = 0.7927 | 817.85 | 1202.7
313.15 K, x2 = 0.855 | 803 | 1208.9
313.15 K, x2 = 0.9073 | 789.15 | 1214.7
313.15 K, x2 = 0.9497 | 776.87 | 1219.8
318.15 K, x2 = 0 | 914.67 | 1118.3
318.15 K, x2 = 0.0688 | 909.81 | 1125.1
318.15 K, x2 = 0.1376 | 904.38 | 1131.5
318.15 K, x2 = 0.1957 | 899.33 | 1136.6
318.15 K, x2 = 0.2716 | 892.05 | 1143.1
318.15 K, x2 = 0.3344 | 885.39 | 1148.2
318.15 K, x2 = 0.4135 | 876.11 | 1154.5
318.15 K, x2 = 0.4916 | 865.85 | 1160.5
318.15 K, x2 = 0.5649 | 855.09 | 1166.1
318.15 K, x2 = 0.6386 | 842.96 | 1171.8
318.15 K, x2 = 0.7084 | 830.09 | 1177.3
318.15 K, x2 = 0.7927 | 812.43 | 1184.6
318.15 K, x2 = 0.855 | 797.61 | 1190.7
318.15 K, x2 = 0.9073 | 783.79 | 1196.3
318.15 K, x2 = 0.9497 | 771.53 | 1201.4
